In the supplement of paper PMC10307832:

Columns and labels:
Experiment in all cases: relative viability (nuclei count vs DMSO), 5 days (fraction); higher = more cells survive
[1] = compound: Nc1ccn([C@@H]2O[C@H](CO)[C@@H](O)C2(F)F)c(=O)n1 [Gemcitabine] + O=C(c1cc(Cc2n[nH]c(=O)c3ccccc23)ccc1F)N1CCN(C(=O)C2CC2)CC1 [Olaparib] (partner 8 µM)
In short: (§1)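 After 5 days of treatment, lung cancer cells in 1536-well plates were fixed and stained in a single step (final 0.05% Triton X-100, 1% formaldehyde, 1 ug/ml Hoechst) and their nuclei counted on 4× images. Treatment had been applied by pin tool the day after seeding as one drug alone or as a fixed anchor-drug dose with five library-drug doses (not always all listed) in √10 steps. Relative viability is the nuclei count of treated wells divided by that of vehicle wells, and values are medians of duplicate plates.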

[2] = compound: Nc1ccn([C@@H]2O[C@H](CO)[C@@H](O)C2(F)F)c(=O)n1 [Gemcitabine] + Nc1nc2[nH]cc(CCc3ccc(C(=O)N[C@@H](CCC(=O)O)C(=O)O)cc3)c2c(=O)[nH]1 [Pemetrexed] (partner 0.2 µM)
In short: as §1

[3] = compound: Nc1ccn([C@@H]2O[C@H](CO)[C@@H](O)C2(F)F)c(=O)n1 [Gemcitabine] + Cc1nc(NC(=O)N2CCC[C@H]2C(N)=O)sc1-c1ccnc(C(C)(C)C(F)(F)F)c1 [Alpelisib] (partner 2 µM)
In short: as §1

[4] = compound: Nc1ccn([C@@H]2O[C@H](CO)[C@@H](O)C2(F)F)c(=O)n1 [Gemcitabine] + CC(=O)c1c(C)c2cnc(Nc3ccc(N4CCNCC4)cn3)nc2n(C2CCCC2)c1=O [Palbociclib] (partner 0.5 µM)
In short: as §1

| Cell Line | relative viability ([1]; first compound 0.001 µM) | relative viability ([1]; first compound 0.003162 µM) | relative viability ([1]; first compound 0.01 µM) | relative viability ([1]; first compound 0.03162 µM) | relative viability ([1]; first compound 0.1 µM) | relative viability ([2]; first compound 0.001 µM) | relative viability ([2]; first compound 0.003162 µM) | relative viability ([2]; first compound 0.01 µM) | relative viability ([2]; first compound 0.03162 µM) | relative viability ([2]; first compound 0.1 µM) | relative viability ([3]; first compound 0.001 µM) | relative viability ([3]; first compound 0.003162 µM) | relative viability ([3]; first compound 0.01 µM) | relative viability ([3]; first compound 0.03162 µM) | relative viability ([3]; first compound 0.1 µM) | relative viability ([4]; first compound 0.001 µM) | relative viability ([4]; first compound 0.003162 µM) | relative viability ([4]; first compound 0.01 µM) | relative viability ([4]; first compound 0.03162 µM) | relative viability ([4]; first compound 0.1 µM) |
| --- | --- | --- | --- | --- | --- | --- | --- | --- | --- | --- | --- | --- | --- | --- | --- | --- | --- | --- | --- | --- |
| 201T | 0.884 | 0.844 | 0.826 | 0.302 | 0.262 | 0.291 | 0.327 | 0.288 | 0.254 | 0.286 | 0.939 | 0.97 | 0.943 | 0.396 | 0.331 | 0.341 | 0.363 | 0.317 | 0.359 | 0.323 |
| A549 | 0.296 | 0.279 | 0.0098 | 0.0228 | 0.014 |  |  |  |  |  | 0.919 | 0.276 | 0.0341 | 0.0189 | 0.0253 |  |  |  |  |  |
| A-427 | 0.756 | 0.745 | 0.481 | 0.259 | 0.199 | 0.986 | 0.93 | 0.851 | 0.351 | 0.249 | 1.03 | 0.99 | 0.764 | 0.169 | 0.0914 | 0.552 | 0.492 | 0.421 | 0.326 | 0.235 |
| ABC-1 |  | 0.687 | 0.54 | 0.427 | 0.398 |  |  |  |  |  | 0.95 | 0.97 | 0.838 | 0.45 | 0.307 |  | 0.547 | 0.626 | 0.353 | 0.347 |
| BEN | 0.946 | 0.421 | 0.234 | 0.193 | 0.145 | 0.774 | 0.417 | 0.277 | 0.164 | 0.223 | 1.09 | 0.659 | 0.253 | 0.117 | 0.0816 | 0.448 | 0.38 | 0.364 | 0.291 | 0.273 |
| CAL-12T | 0.714 | 0.641 | 0.551 | 0.228 | 0.201 | 1.38 | 1.07 | 1.04 | 0.286 | 0.156 | 1.6 | 0.917 | 0.84 | 0.285 | 0.164 | 0.628 | 0.48 | 0.292 | 0.161 | 0.16 |
| COR-L23 | 0.35 | 0.31 | 0.141 | 0.0915 | 0.0858 | 0.198 | 0.19 | 0.19 | 0.14 | 0.129 | 0.763 | 0.634 | 0.229 | 0.118 | 0.0742 | 0.277 | 0.214 | 0.119 | 0.112 | 0.0964 |
| COR-L 105 | 0.692 | 0.774 | 0.625 | 0.357 | 0.282 | 1.32 | 1.01 | 0.895 | 0.37 | 0.282 | 1.22 | 0.95 | 0.526 | 0.261 | 0.21 | 0.398 | 0.4 | 0.366 | 0.347 | 0.326 |
| Calu-6 | 0.529 | 0.465 | 0.24 | 0.119 | 0.0919 |  |  |  |  |  | 1.02 | 0.415 | 0.224 | 0.13 | 0.12 |  |  |  |  |  |
| ChaGo-K-1 | 0.471 | 0.452 | 0.22 | 0.182 | 0.146 | 0.247 | 0.23 | 0.23 | 0.209 | 0.183 |  |  |  |  |  | 0.99 | 0.803 | 0.31 | 0.186 | 0.167 |
